Source: patent US20040009904A1, “APL immunoreactive peptides, conjugates thereof and methods of treatment for aPL antibody-mediated pathologies” (priority 1995, published 2004)
pKi: −log10 of the molar value. Bridge positions count the residues as written; N and C are the ends. Peptide text beside a SMILES is read from it.

Columns and labels:
ACA-6626 = assay: Competitive binding peptide ACA ELISA, cardiolipin/β2-GPI-coated plates; parameters: species or system human; conditions: peptide 1 mg/mL, affinity purified antibody
Method in brief: (§1)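 Wells coated with cardiolipin plus IgG-depleted human serum as β2-GPI source; monomeric peptides at several concentrations preincubated with aPL antibody, then added 1 h RT. Bound IgG detected with alkaline phosphatase anti-human IgG, A550; IC50 taken as peptide amount giving half-maximal absorbance.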

ACA-6638 = assay: as above; parameters: species or system human; conditions: peptide 1 mg/mL, affinity purified antibody
Method in brief: as §1

ACA-6641 = assay: as above; parameters: species or system human; conditions: peptide 1 mg/mL, affinity purified antibody
Method in brief: as §1

ACA-6644 = assay: as above; parameters: species or system human; conditions: peptide 1 mg/mL, affinity purified antibody
Method in brief: as §1

ACA-6701 [1] = assay: as above; parameters: species or system human; conditions: peptide 1 mg/mL, affinity purified antibody
Method in brief: as §1

ACA-6903 = assay: as above; parameters: species or system human; conditions: peptide 1 mg/mL, affinity purified antibody
Method in brief: as §1

ACA-7004 = assay: as above; parameters: species or system human; conditions: peptide 1 mg/mL, affinity purified antibody
Method in brief: as §1

ACA-7005 = assay: as above; parameters: species or system human; conditions: peptide 1 mg/mL, affinity purified antibody
Method in brief: as §1

ACA-6701 [2] = assay: Competitive fluorescence polarization assay (cFP); type: binding, human
Procedure: The above described dbFP assay provides binding constants for FITC-labeled peptides and requires on the order of 0.5 mg of purified antibody. The cFP assay provides binding constants for peptides that lack the FITC group and it consumes less antibody, on the order of 10 μg. The cFP assay is modified from that reported in PanVera Applications Guide (1994) PanVera Corporation such that it consumes 50-fold less antibody. Briefly, antibody (ACA 6701) is mixed with trace FITC labeled peptide (CB2*-F) and enough time is allowed for equilibrium to be reached. This was 1 hour for ACA 6701 and CB2*-F. Increasing concentrations of the unlabeled peptide being tested (CB2* or 3B10) are then added to the tube. After each addition, sufficient time, approximately 15 minutes, is allowed for equilibrium to be reached and the mP value was read. […] This Δ(mP) value should be 20 or more mP units to insure reliable results.
As unlabeled (no FITC) peptide (I) is added to inhibit F from binding to R, Y decreases from its maximum value of PH′ to a plateau of PL which should agree with that in Equation 1. These titrations are shown in FIGS. 26 and 27 for displacement of CB2*-F from ACA-6701 by CB2* and 3B10, respectively. The equation describing this titration was derived and is: [formula]
where PL is the same as in Equation 1. […]

CC(C)C[C@@H]1NC(=O)[C@H](CC(C)C)NC(=O)[C@H](CC(C)C)NC(=O)[C@@H](NC(=O)[C@@H]2CCCN2C(=O)CNC(=O)[C@H](C)N)CSSC[C@@H](C(=O)N2CCC[C@H]2C(=O)NCC(=O)O)NC(=O)[C@H](CCCNC(=N)N)NC(=O)[C@H](CC(=O)O)NC(=O)[C@@H]2CCCN2C(=O)[C@H](C)NC1=O [3B10, AGPCLLLAPDRCPG] (H-AGPCLLLAPDRCPG-OH; disulfide 4-12)
Percent Inhibition of AffACA by Peptide Monomers, 6626 (ACA-6626): 76%
Percent Inhibition of AffACA by Peptide Monomers, 6638 (ACA-6638): 87%
Percent Inhibition of AffACA by Peptide Monomers, 6641 (ACA-6641): 52%
Percent Inhibition of AffACA by Peptide Monomers, 6644 (ACA-6644): 55%
Percent Inhibition of AffACA by Peptide Monomers, 6701 (ACA-6701 [1]): 51%
Percent Inhibition of AffACA by Peptide Monomers, 6903 (ACA-6903): 69%
Percent Inhibition of AffACA by Peptide Monomers, 7004 (ACA-7004): 87%
Percent Inhibition of AffACA by Peptide Monomers, 7005 (ACA-7005): 47%
pKi (ACA-6701 [2]; cFP, displacement of CB2*-F from ACA-6701): 6.50
binding to ACA-6701 less than binding of CB2* (ACA-6701 [2]; versus CB2*): 9 fold
